According to PMC11279616 (Pharmaceuticals, 2024):
Where no end group is shown, it is not given here.

Assays:
Vero E6 cells [1] = format: cell-based, African green monkey; details: at 50 and at 100 μg, MTS
Description: For the MTS assay, VERO E6 cells (2 × 10^4/well) were seeded into 96-well plates in triplicate and cultured in growth medium. Then, different peptide concentrations were added, and the viability was tested every day for three consecutive days using the CellTiter […] Aqueous One Solution Cell Proliferation Assay kit (CTB169; Promega, Fitchburg, WI, USA) following the manufacturers manual. Untreated cells were used for value normalizations.

Vero E6 cells [2] = details: 100 µg

Row | Sequence | concentration/toxicity ratio (Vero E6 cells [1]) | toxic effect (Vero E6 cells [2])
1 | VTNATAPNTDVSVSLSMILQTISASI [pep6] | best concentration/toxicity ratio | 
2 | VVNTDSLSSVTNATSIQITAPASMLI [DPP4_270–295] |  | without observing any toxic effect
